What was measured:
[1] = tested on: cell-free particulate fractions derived from the methylotrophic microorganisms; experiment: Inhibition of conversion of C3-C6 n-alkanes to sec. alcohols by cell-free particulate fractions; assay type: biochemical; details: oxygen and NADH
Text: The conditions for preparing the cell suspensions or the cell-free particulate fractions from methane-grown methylotroph microorganisms is the same as described above.

[2] = tested on: cell suspensions of the strains of C1-utilizers tested; experiment: Production of methyl ketones from secondary alcohols by cell suspensions of C1-utilizers (strains tested); assay type: cell-based; details: for Inhibition of production of 2-butanone from 2-butanol: cell suspensions of the strains tested
Text: The substrate specificity for the oxidation of C3 -C6 secondary alcohols by the strains of C1 -utilizers was studied.

[3] = tested on: secondary alcohol dehydrogenase (SADH); experiment: Inhibition of purified secondary alcohol dehydrogenase (SADH); assay type: biochemical, Pseudomonas sp. ATCC 21439; details: inhibitor 1 mM, measured spectrofluorometrically
Procedure: (§1) Secondary alcohol dehydrogenase (SADH) from an obligate methanol utilizer, Pseudomonas sp. ATCC 21439 was purified as follows. […] 0.05 M sodium phosphate buffer, pH 7.0 with 0.5mM dithiothretol (buffer A) and were disrupted sonically (5×1 min.). The crude extract was separated by centrifugation. The crude extract was heat-treated at 50° C. in a water bath for 10 minutes. The resulting precipitate was removed by centrifugation. To the supernatant solution, 25 ml of protamine sulfate solution (2% solution in 0.1 M Tris base) was added dropwise with continuous stirring. After standing for 30 minutes, the extract was centrifuged. The supernatant solution was fractionated with solid ammonium sulfate. […] This DEAE-cellulose eluate was concentrated by ammonium sulfate fractionation. Material precipitating between 30 and 50% ammonium sulfate saturation was collected by centrifugation and dialyzed overnight against A. This fraction was further washed and filtered through an Amicon unit with XM 50 membrane. The concentrated fraction (6 ml) inside the Amicon unit was applied to an Affi-Gel Blue column (0.8 cm ×18 cm) which had been equilibrated with buffer A for affinity chromatography. The column was washed overnight with buffer A (0.18 ml./min.) and then was eluted with buffer A containing 5 mM NAD. Each 1 ml. fraction was collected.
(§2) The purified secondary alcohol dehydrogenase enzyme (SADH) may be used directly for converting C3 -C6 secondary alcohols to the corresponding methyl ketones by the procedures described above; however, a source of NAD^+ must be added to the reaction medium. One can determine the NAD-linked secondary alcohol dehydrogenase activity with a fluorescence spectrophotometer (Perkin Elmer, Model MPF 44A) by following the formation of reduced NAD (Ex 340 nm, Em 460 nm). The assay system (3 ml.) will typically contain: sodium phosphate buffer pH 7.0, 150 μmol; NAD 1.0 μmol; a given amount of enzyme preparation; and 20 μmol secondary alcohol. The reaction is started by the addition of secondary alcohol. One unit of SADH enzyme activity represents the reduction of one nmole NAD per minute.
The effect of metal-chelating agents and thioreagents on the activity of the purified SADH enzyme were studied. […] The possibility of ethanol or n-propanol as an inhibitor was studied.

[4] = tested on: purified secondary alcohol dehydrogenase; experiment: Inhibition of purified yeast secondary alcohol dehydrogenase; assay type: biochemical, Pichia sp. NRRL Y-11,328; details: purified yeast enzyme
Procedure: (§3) Large scale cultures of Pichia sp. NRRL Y-11,328 were grown with aeration at 30° C. in a 14-liter New Brunswick f fermentor in a mineral salt medium containing methanol (0.4%, v/v) as the sole carbon source. The cells (200 g., wet weight) were suspended in 50 mm sodium phosphate buffer, pH 7.0, containing 1 mM dithiothreitol (buffer A), and crude extracts were prepared as described previously. To the crude extracts, 18 ml. of protamine sulfate solution [2% solution in 0.1 M tris (hydroxymethyl) aminomethane (tris) base] was added dropwise with continuous stirring. After standing for 30 min., the extracts were centrifuged at 20,000 x g. for 60 min. The supernatant solution was fractioned with solid ammonium sulfate. Extracts were brought to 50% of saturation with respect to ammonium sulfate by addition of 313 g. of the salt per liter of extract. Precipitated proteins was removed by centrifugation, and 137 g. of ammonium sulfate was added per liter of the supernatant liquid to bring it to 70% of saturation. Material precipitating between 50 and 70% of saturation was collected by centrifugation and dissolved in buffer A. This preparation was dialyzed overnight against buffer A, and the dialyzed material was applied to a DEAE-cellulose column (5×40 cm) that had been equilibrated with buffer A. The sample was washed with 200 ml. of buffer A and eluted with 2 liters of buffer A that contained NaCl in a linear gradient running from a concentration of 0 to 0.5 M. Fractions of 15 ml. were collected. Fractions containing secondary alcohol dehydrogenase activity were pooled and were termed DEAE-cellulose eluate. The DEAE-cellulose eluate was concentrated by ammonium sulfate fractionation.
(§4) Secondary alcohol dehydrogenase activity was measured spectrophotometrically at 340 nm with a NAD^+ as an electron acceptor. The reaction mixture, in a total 3.0 ml., contained 50 mM phosphate buffer, pH 8.0, 5μmoles NAD^+, crude extracts, and substrate. The reactions were started by addition of 100 μof 0.1 M substrate and the rate of NAD^+ reduction was measured. Protein concentration was determined by the method of Lowry et al.
Various primary alcohols not oxidized by secondary alcohol dehydrogenase were tested as potential inhibitors of enzyme activity.

[5] = tested on: P(40) fraction of Methylosinus sp. (CRL-15, NRRL B-11,202); experiment: Effect of inhibitors on propylene epoxidation and methane hydroxylation by P(40) fraction (Table XI); assay type: biochemical; details: inhibitor 10^-3 M
Procedure: The oxidation of methane and propylene by particulate [(P)40 and (P)80] fractions and soluble [S(80)] fraction was measured at 30° C. by estimating the production of methanol and propylene oxide, respectively. The reaction mixtures contained in 1.0 ml: 150 mM potassium phosphate buffer, pH 7.0 containing 5 mM MgC2, 0.6 ml; 10 μmoles NADH, and cellular fraction.
Reaction mixtures were contained in 10 ml vials at 4° C. Vials were sealed with rubber caps. The gaseous phase in the vials was removed using vacuum and then was replaced with a gas mixture of methane or propylene and oxygen at a 1:1, v/v ratio. Oxidation of other gaseous n-alkanes and n-alkenes was examined as described above. For liquid substrates, 10 μ of substrate was used directly. Vials were then incubated at 30° C. on a rotary shaker at 200 RPM.
The products of epoxidation of n-alkenes and hydroxylation of n-alkanes were assayed by flame ionization gas chromatography using a stainless steel column (12'×1/8") packed with 10% Carbowax 20M on 80/100 Chromosorb W and Porapak Q column. The column temperature was maintained isothermally at 120° C. The carrier gas flow rate was 30 ml/min. of helium. The various products were identified by retention time comparisons and co-chromatography with authentic standards.
It has been reported that the oxidation of methane by cell suspensions of methane-utilizing bacteria was inhibited by various metal-binding or metal-chelating agents (Patel et al., J. Bacteriol. 126: 1017-1019 (1976)). […] (CRL-15, NRRL B-11,202) was examined.

[6] = tested on: P(40) particulate fraction of Methylosinus sp. (CRL-15, NRRL B-11,202); experiment: Oxidation of n-alkenes and n-alkanes by P(40) particulate fraction (Table X); assay type: biochemical; details: P(40) fraction, 30° C.
[7] = tested on: secondary alcohol dehydrogenase (SADH); experiment: Substrate specificity and Michaelis constants of purified SADH; assay type: biochemical, Pseudomonas sp. ATCC 21439
Procedure: as §1, §2

[8] = tested on: purified secondary alcohol dehydrogenase; experiment: Stoichiometry of isopropanol and sec-butanol oxidation by the purified secondary alcohol dehydrogenase (Table XXIV); assay type: biochemical, Pichia sp. NRRL Y-11,328; details: substrate 5.7 (isopropanol) or 6.0 (2-butanol) μmoles
Procedure: ^a The estimation of NAD^+ reduced was measured
spectrophotometrically at 340 nm.
^b The estimation of products was detected by gas chromatography as
described in the methods.

[9] = tested on: purified secondary alcohol dehydrogenase; experiment: Substrate and electron acceptor specificity of purified yeast secondary alcohol dehydrogenase; assay type: biochemical, Pichia sp. NRRL Y-11,328
Procedure: as §3, §4
The substrate specificity of the purified secondary alcohol dehydrogenase was examined spectrophotometrically.

[10] = tested on: Methylobacter vinelandii (CRL M5Y NRRL B-11,218); experiment: Microbiological oxidation of cyclic hydrocarbons by methane-grown washed cells (Example 7); assay type: cell-based; details: aerobic
Procedure: A 0.5 ml sample of each washed cell suspension (2 mg cells) was put into 10 ml vials at 4° C. which were sealed with a rubber cap. The gaseous phase of the vials was removed with vacuum and then was replaced with a gas mixture of the oxidative substrate (e.g., methane) and oxygen at a 1:1 v/v ratio. […] Samples of product (3 μl) were withdrawn periodically with a microsyringe and the products were analyzed by gas chromatography (ionization flame detector column).
Methylobacter vinelandii (CRL M5Y NRRL B-11,218) was aerobically grown in a methane-containing nutrient medium in the manner described in Example 1 and the methane-grown washed cells were contacted under aerobic conditions with cyclohexane, benzene and toluene.

[11] = tested on: cell-free soluble extracts (SADH system); experiment: Cofactor requirement of cell-free SADH system (2-butanol to 2-butanone); assay type: biochemical
Procedure: The clear supernatant contained the SADH activity. […] The reaction was started by the addition of substrate.
Catalytic activity was also assayed by fluorescence spectrophotometry.

Q: For `c1cnc2c(c1)ccc1cccnc12` [1,10-phenanthroline], which “Inhibition of conversion of C3-C6 n-alkanes to sec. alcohols (in words)” value [1] is on record?
A: inhibited

Q: And the “Inhibition of production of 2-butanone from 2-butanol” value [2]?
A: inhibited

Q: And the “% inhibition of SADH activity” value [3]?
A: 95%

Q: What about the “Inhibition of secondary alcohol dehydrogenase activity (in words)” value [4] of the same compound?
A: strongly inhibited

Q: What about the “% inhibition of methane-hydroxylating activity” value [5] of the same compound?
A: 90%

Q: What about the “% inhibition of propylene-epoxidizing activity” value [5] of the same compound?
A: 93%

Q: For `C=CCC` [1-Butene], which “Rate of product formation (substrate to epoxide or alcohol)” value (“Rate of product formation” below) [6] is on record?
A: 2.18 μ moles/hr/mg of protein

Q: Which “Rate of product formation” value [6] does the source give for `C=CCCC` [1-Pentene] here?
A: 0 μ moles/hr/mg of protein

Q: `CC(C)O` [2-propanol] was tested. Which “Oxidation by purified SADH (in words)” value [7] did it give?
A: highest

Q: What about the “Rate of oxidation of secondary alcohols to methyl ketones” value ([2]; cell suspensions of C1-utilizers) of the same compound?
A: higher rates

Q: And the “Product formed (acetone or 2-butanone)” value ([8]; gas chromatography)?
A: 5.5 µmol

Q: What about the “NAD^+ reduced” value ([8]; spectrophotometrically at 340 nm) of the same compound?
A: 5.4 µmol

Q: What about the “Oxidation by the purified yeast enzyme (in words)” value ([9]; examined spectrophotometrically) of the same compound?
A: catalyzed the oxidation

Q: For `C=CC=C` [Butadiene], which “Rate of product formation” value [6] is on record?
A: 0.63 μ moles/hr/mg of protein

Q: With `C1CCCCC1` [Cyclohexane] as the compound, how does the “Conversion rate to cyclohexanol” value [10] read?
A: 1.5 μmoles/2 hr./mg. protein

Q: For `CC` [Ethane], which “Rate of product formation” value [6] is on record?
A: 3.2 μ moles/hr/mg of protein

Q: How did the “Rate of product formation” value [6] turn out when `C=C` [Ethylene] was run?
A: 1.27 μ moles/hr/mg of protein

Q: Which “Effectiveness as cofactor of the cell-free SADH system” value [11] does the source give for `Cc1cc2nc3c(=O)[nH]c(=O)nc-3n(C[C@H](O)[C@H](O)[C@H](O)COP(=O)(O)OP(=O)(O)OC[C@H]3O[C@@H](n4cnc5c(N)ncnc54)[C@H](O)[C@@H]3O)c2cc1C` [FAD, flavin adenine dinucleotide, reference compound] here?
A: not effective

Q: And the “Function as electron acceptor/carrier for the purified yeast enzyme” value (shortened to “Function as electron acceptor/carrier”) [9]?
A: could not act as electron carrier

Q: `NC(=O)C1=CN([C@@H]2O[C@H](COP(=O)(O)OP(=O)(O)OC[C@H]3O[C@@H](n4cnc5c(N)ncnc54)[C@H](OP(=O)(O)O)[C@@H]3O)[C@@H](O)[C@H]2O)C=CC1` [NAD(P)H] was tested. Which “Effectiveness as cofactor of the cell-free SADH system” value [11] did it give?
A: not effective

Q: Which results are given for `NC(=O)c1ccc[n+]([C@@H]2O[C@H](COP(=O)([O-])OP(=O)(O)OC[C@H]3O[C@@H](n4cnc5c(N)ncnc54)[C@H](O)[C@@H]3O)[C@@H](O)[C@H]2O)c1` [NAD, Nicotinamide adenine dinucleotide, reference compound]?
A: Effectiveness as cofactor of the cell-free SADH system [11]: required; Function as electron acceptor/carrier for the purified yeast enzyme [9]: required

Q: For `NC(=O)c1ccc[n+]([C@@H]2O[C@H](COP(=O)([O-])OP(=O)(O)OC[C@H]3O[C@@H](n4cnc5c(N)ncnc54)[C@H](OP(=O)(O)O)[C@@H]3O)[C@@H](O)[C@H]2O)c1` [NADP, reference compound], which “Effectiveness as cofactor of the cell-free SADH system” value [11] is on record?
A: not effective

Q: What about the “Function as electron acceptor/carrier” value [9] of the same compound?
A: could not act as electron carrier

Q: With `c1ccccc1` [benzene] as the compound, how does the Oxidative conversion [10] read?
A: no oxidative conversion was detected

Q: For `O=C1C(Cl)=CC(=Nc2ccc(O)cc2)C=C1Cl` [dichlorophenol indophenol, reference compound], which “Effectiveness as cofactor of the cell-free SADH system” value [11] is on record?
A: not effective

Q: What about the “Function as electron acceptor/carrier” value [9] of the same compound?
A: could not act as electron carrier

Q: Which results are given for `N[C@@H](CCC(=O)N[C@@H](CS)C(=O)NCC(=O)O)C(=O)O` [glutathione]?
A: Effectiveness as cofactor of the cell-free SADH system [11]: not effective; Inhibition of secondary alcohol dehydrogenase activity (in words) [4]: strongly inhibited

Q: For `C[n+]1c2ccccc2nc2ccccc21` [phenazine methosulfate, reference compound], which “Effectiveness as cofactor of the cell-free SADH system” value [11] is on record?
A: not effective

Q: And the “Function as electron acceptor/carrier” value [9]?
A: could not act as electron carrier

Q: Which Oxidative conversion [10] does the source give for `Cc1ccccc1` [toluene] here?
A: no oxidative conversion was detected

Q: `c1ccc(-c2ccccn2)nc1` [α,α-bipyridyl] was tested. Which “Inhibition of conversion of C3-C6 n-alkanes to sec. alcohols (in words)” value [1] did it give?
A: inhibited

Q: What about the “Inhibition of production of 2-butanone from 2-butanol” value [2] of the same compound?
A: inhibited

Q: And the “% inhibition of SADH activity” value [3]?
A: 70%

Q: What about the “% inhibition of methane-hydroxylating activity” value [5] of the same compound?
A: 99%

Q: What about the “% inhibition of propylene-epoxidizing activity” value [5] of the same compound?
A: 98%
